Experimental data: patent publication US20250003968A1, “ACTIVITY-BASED CELL SORTING” (MASSACHUSETTS INSTITUTE OF TECHNOLOGY, priority 2021, published 2025)
*1 amine or outer side, *2 acyl side, *3 side chain or, on linkers, in order; H or OH if unused. Where no end group is shown, it is not given here. [ ]: non-standard residue; d: D form. The star is where a group is joined. 5FAM = O=C1OC2(c3ccc(O)cc3Oc3cc(O)ccc32)c2ccc(C(=O)*)cc21; Suc = O=C(CCC(=O)[*:2])[*:1]; Cy3 = Cy3 fluorophore label; Cy5 = Cy5 fluorophore label; Ahx = NCCCCCC(=O)O

What was measured:
[1] = test system: serine proteases of mouse colon tissue sections; experiment: AZP staining of frozen mouse colon sections; assay type: biochemical
From the text: We validated the AZP principle on colon tissue, whose epithelial cells secrete serine proteases including urokinase plasminogen activator (uPA). We therefore synthesized a Cy5-labeled AZP, termed PZ2 (SEQ ID NO:176), containing a serine protease-cleavable linker. Because similar peptides had never been applied directly to frozen tissue sections, it was unknown whether AZPs would nonspecifically bind to the tissue, or whether proteolytic cleavage would be required for AZP binding. We therefore pre-cleaved PZ2 with a serine protease, mesotrypsin (PRSS3) and applied it to a frozen section of mouse colon for 30 minutes. As a binding control, we also applied intact, uncleaved PZ2 to a consecutive section of mouse colon.
Having verified that proteolytic cleavage induces AZP binding, we next sought to validate whether AZPs could enable localization of protease activity in situ (FIG. 19a). Specifically, it was unknown whether frozen tissue sections would maintain sufficient protease activity to induce probe cleavage or whether cleaved probes would bind at the site of cleavage rather than diffusing to a distant site. We applied PZ2 and a binding control (free polyR-Cy7) to fresh-frozen sections of mouse colon (FIG. 19b). […] These findings verified that protease activity in the tissue section was necessary and sufficient to activate AZPs. Strikingly, we found strong colocalization of PZ2 with E-cadherin, a specific marker of epithelial cells, providing evidence that cleaved AZPs bind at the site of cleavage, rather than diffusing to a distant site (FIG. 19d).

[2] = test system: T1, quenched probe Q1, incorporating the substrate S1
T1 sequence: GGPQGIWGQC

[3] = test system: human PCa tissue microarray; experiment: AZP staining of fresh-frozen human PCa tissue microarray (TMA); assay type: biochemical; conditions: for labeling of PCa tissue relative to normal prostates: AZP signal normalized to polyR, normal n=4, PCa n=24 cores; for labeling with vs without broad-spectrum cocktail of protease inhibitors: consecutive TMA sections
From the text: Two AZPs incorporating MMP-responsive substrates, PZ16 (SEQ ID NO:184) and PZ19, and two AZPs incorporating serine protease-responsive substrates, Z2 (SEQ ID NO:172) and PZ11 (SEQ ID NO:180), were selected for evaluation. We applied these probes, along with a free polyR control, to a frozen human PCa TMA that contained biopsies from normal prostates and PCa tumors across a range of Gleason scores.
To determine whether AZP binding was dependent on proteolysis, for each probe a consecutive TMA section was treated with a broad-spectrum cocktail of protease inhibitors.
We then investigated whether AZPs preferentially labeled PCa tissue relative to normal prostates. […] AZP activation and tissue staining across the TMA was quantitatively assessed by normalizing AZP signal intensity to polyR signal to account for differing binding propensities within a single core and across individual specimens. […] We further assessed the classification accuracy of these two in situ probes using receiver operating characteristic (ROC) curves.

[4] = test system: tissue-resident proteases in Eml4-Alk lung tissue sections; experiment: In situ zymography with AZPs on fresh-frozen lung tissue sections; assay type: biochemical, mouse; conditions: for AZP labeling of Eml4-Alk lung tissue: individual AZPs on consecutive sections, 7 weeks after tumor induction; for effect of inhibitor on Z1 tissue labeling: Eml4-Alk lung sections, 1 mM marimastat, 400 μM AEBSF or inhibitor cocktail
Method: Mice were euthanized by isoflurane overdose. Lungs were then filled with undiluted optimal-cutting-temperature (OCT) compound through catheterization of the trachea; the trachea was subsequently clamped; and lungs were extracted. Individual lobes were dissected and then immediately embedded and frozen in optimal-cutting-temperature (OCT) compound (Sakura).
Cryosectioning was performed at the Koch Institute Histology Core. Prior to staining, slides were air dried, fixed in ice-cold acetone for 10 minutes, and then air dried. After hydration in PBS (3×5 minutes), tissue sections were blocked in protease assay buffer (50 mM Tris, 300 mM NaCl, 10 mM CaCl2), 2 mM ZnCl2, 0.02% (v/v) Brij-35, 1% (w/v) BSA, pH 7.5) for 30 minutes at room temperature. Blocking buffer was aspirated, and solution containing fluorescently labeled AZPs (1 μM each AZP) and a free poly-arginine control (polyR, 0.1 μM) diluted in the protease assay buffer was applied. Slides were incubated in a humidified chamber at 37° C. for 4 hours. For inhibited controls, 400 μM AEBSF (Sigma Aldrich), 1 mM marimastat (Sigma Aldrich), or protease inhibitor cocktail (P8340, Sigma Aldrich) spiked with AEBSF and marimastat was added to the buffer at both the blocking and cleavage assay steps. For uninhibited conditions, dimethyl sulfoxide (DMSO) was added to the assay buffer to a final concentration of 3% (v/v). For co-staining experiments, primary antibodies (E-cadherin, AF748, R&D Systems, 4 μg/mL; vimentin, ab92547, Abcam, 0.5 μg/mL; CD31, AF3628, R&D Systems, 10 μg/mL; desmin, ab227651, Abcam, 1.32 μg/mL) were included in the AZP solution. Following AZP incubation, slides were washed in PBS (3×5 minutes), stained with Hoechst (5 μg/mL, Invitrogen) and the appropriate secondary antibody if relevant (Invitrogen, 1:500), washed in PBS (3×5 minutes), and mounted with ProLong™ Diamond Antifade Mountant (Invitrogen). Slides were scanned on a Pannoramic 250 Flash III whole slide scanner (3DHistech).
The Z1 AZP (10 μmol/L) was incubated with recombinant fibroblast activation protein (FAP) in FAP assay buffer (50 mM Tris, 1 M NaCl, pH 7.5) overnight at 37° C. to run the cleavage reaction to completion. After precleavage with recombinant FAP, the AZP solution was diluted to a final peptide concentration of 0.1 μM in protease assay buffer. Cognate intact Z1 AZP (1 μmol/L) and precleaved Z1 AZP, each with a free polyR control (0.1 μM), were applied to fresh-frozen Eml4-Alk lung tissue sections (slide preparation described above) and incubated at 37° C. for 4 hours. After AZP incubation, slides were washed, stained with Hoechst, mounted, and scanned.
AZP and immunofluorescence staining was quantified in QuPath™ 0.2.3[53] and in ImageJ™ (NIH, v1.53). To perform cell-by-cell analysis, cell segmentation was performed using automated cell detection on the DAPI (nuclear) channel. For quantification of activity inhibition, AZP staining was calculated as a fold change of the mean nuclear AZP signal over the mean nuclear polyR signal. All nuclei within an individual tumor were averaged across that given tumor. Nuclei with a polyR intensity of less than 3 were excluded from analysis. For quantification of AZP intensity based on cell morphology and marker expression, cells were annotated as “vimentin-positive, spindle” if they were spindle-shaped and expressed vimentin; “E-cadherin-positive, cuboidal” if they were cuboidal-shaped and expressed E-cadherin; “vimentin-positive, round” if they were rounded and expressed vimentin. A random forest classifier was trained on all annotated cells (at least 20 cells per class) using multiple cellular features, including nuclear area and eccentricity, and mean cellular fluorescence intensity across all channels. The trained classifier was then applied to all cells across all tumors in the tissue section, and mean cellular fluorescence intensity was quantified.

[5] = test system: MMP activity in Hi-Myc prostate tissue sections; experiment: AZP staining of fresh-frozen Hi-Myc prostate sections; assay type: biochemical, mouse
From the text: It was unknown whether AZPs could enable in situ localization of the cleavage of peptides discovered in a screen of bulk homogenates. We therefore synthesized a new AZP (PZ19: SEQ ID NO:186) and applied it to fresh-frozen sections of prostates from Hi-Myc mice (FIG. 21a). With the exception of the protease-cleavable linker and fluorophore, PZ19 was identical in design to the serine protease-responsive PZ2. […] PZ19 labeling was abrogated by the MMP inhibitor marimastat (FIG. 21b middle row), though the free polyR control was unchanged.
It was unknown whether AZPs could be used in conjunction with antibodies to enable dual zymography and immunofluorescence labeling. […] Further, PZ19 labeling and co-localization with Ki67 was abrogated by addition of marimastat (FIG. 21d).

[6] = test system: T2, PZ2, Cy5-labeled AZP containing a serine protease-cleavable linker
T2 sequence: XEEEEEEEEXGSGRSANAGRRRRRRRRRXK

[7] = test system: homogenates of prostates from Hi-Myc PCa mice; experiment: Multiplexed bead-coupled substrate screen against prostate homogenates; assay type: biochemical, mouse; conditions: pre-treatment of Hi-Myc prostate homogenates
Method: We turned to the Hi-Myc genetically engineered mouse model of PCa, wherein c-Myc is overexpressed in the murine prostate, resulting in invasive PCa. We selected a panel of 18 peptides previously found by our group to be recognized by a diverse array of metallo- and serine proteases dysregulated in PCa^20 and appended each with a unique, mass-encoded reporter molecule. We coupled these barcoded substrates to magnetic beads via a non-cleavable poly(ethylene glycol) (PEG) linker and incubated the bead cocktail against homogenates of prostates from PCa mice and from age-matched healthy controls (FIG. 20a). Beads were pulled down via magnetic separation, and liberated reporter molecules in the supernatant were measured by mass spectrometry, enabling quantification of substrate cleavage. Unsupervised hierarchical clustering of the cleavage data yielded two distinct clusters corresponding to prostates from PCa mice and prostates from healthy mice (FIG. 20b).

[8] = test system: pulmonary protease activity; experiment: In vivo activity-based nanosensors, urinary reporters by LC-MS/MS; parameters: species or system mouse; conditions: within 3 days of treatment initiation; 20 mg/kg daily oral gavage
Method: The urinary reporter glutamate-fibrinopeptide B (Glu-Fib) was mass barcoded for detection by mass spectrometry. Nanosensors were dosed (50 μL total volume, 20 μM each nanosensor) in mannitol buffer (0.28 M mannitol, 5 mM sodium phosphate monobasic, 15 mM sodium phosphate dibasic, pH 7.0-7.5) by intratracheal intubation. Anesthesia was induced by isoflurane inhalation, and mice were monitored during recovery. For intratracheal instillation, a volume of 50 μL was administered by passive inhalation following intratracheal intubation with a 22G flexible plastic catheter (Exel). […]
LC-MS/MS was performed by Syneos Health using a Sciex™ 6500 triple quadrupole instrument. […] Samples were extracted by solid-phase extraction and analyzed by multiple reaction monitoring by LC-MSMS to quantify concentration of each Glu-Fib mass variant. Analyte quantities were normalized to a spiked-in internal standard and concentrations were calculated from a standard curve using peak area ratio (PAR) to the internal standard. […]
Analyses of urinary reporter data were conducted using the analytic pipelines of the protease activity analysis (PAA) package [52], a publicly available Python package designed to process and visualize enzymatic activity datasets. […] Ten independent train-test trials were run for each classification problem, and classification performance was evaluated with ROC statistics. […]

U-eeeeeeee-X-GSGRSANAG-rrrrrrrrr-X-K(Cy5) (Suc-[dE][dE][dE][dE][dE][dE][dE][dE][Ahx]GSGRSANAG[dR][dR][dR][dR][dR][dR][dR][dR][dR][Ahx]K(Cy5)) [PZ2]
probe staining of fresh-frozen mouse colon sections ([1]; four-hour incubation): strong PZ2 staining | fluorescence of colon sections treated with intact probe ([1]; intact, 30 minutes): minimal fluorescence | fluorescence of colon sections treated with pre-cleaved probe ([1]; pre-cleaved with mesotrypsin (PRSS3), 30 minutes): notable fluorescent signal throughout

U-eeeeeeee-X-GsGrsanaG-rrrrrrrrr-X-K(Cy5) (Suc-[dE][dE][dE][dE][dE][dE][dE][dE][Ahx]G[dS]G[dR][dS][dA][dN][dA]G[dR][dR][dR][dR][dR][dR][dR][dR][dR][Ahx]K(Cy5)) [dPZ2, AZP with a non-cleavable d-stereoisomer linker]
probe staining of fresh-frozen mouse colon sections ([1]; four-hour incubation): no Cy5 fluorescence

recombinant fibroblast activation protein (FAP)
fluorescence activation monitored over time (cleavage of quenched probe) [2]: Fibroblast activation protein (FAP) cleaves S1 in vitro

U-eeeeeeee-X-GGLVPRGSGG-rrrrrrrrr-X-K(Cy5) (Suc-[dE][dE][dE][dE][dE][dE][dE][dE][Ahx]GGLVPRGSGG[dR][dR][dR][dR][dR][dR][dR][dR][dR][Ahx]K(Cy5)) [Z2]
labeling of PCa tissue relative to normal prostates [3]: preferentially label PCa tissue | labeling with vs without broad-spectrum cocktail of protease inhibitors [3]: protease-dependent labeling

UeeeeeeeeXGGLGPKGQTGGrrrrrrrrrX-k(Cy3) (Suc-[dE][dE][dE][dE][dE][dE][dE][dE][Ahx]GGLGPKGQTGG[dR][dR][dR][dR][dR][dR][dR][dR][dR][Ahx][dK](Cy3)) [Z7]
AZP labeling of Eml4-Alk lung tissue [4]: protease-mediated, tumor-specific labeling

U-eeeeeeee-X-GPVPLSLVMG-rrrrrrrrr-X-K(5FAM) (Suc-[dE][dE][dE][dE][dE][dE][dE][dE][Ahx]GPVPLSLVMG[dR][dR][dR][dR][dR][dR][dR][dR][dR][Ahx]K(5FAM)) [PZ19]
probe labeling of Hi-Myc prostate sections ([5]; fresh-frozen sections): PZ19 labeling in histologically normal glands of the Hi-Myc prostate | PZ19 labeling of normal mouse prostate ([5]; histologically similar region of healthy prostate): reduced PZ19 labeling | labeling of PCa tissue relative to normal prostates [3]: no significant difference between PCa and normal cores | labeling with vs without broad-spectrum cocktail of protease inhibitors [3]: no difference between the uninhibited and inhibited conditions

mesotrypsin (PRSS3)
in vitro pre-cleavage of the probe, read out by tissue fluorescence [6]: We therefore pre-cleaved PZ2 with a serine protease, mesotrypsin (PRSS3)

CNC(=O)[C@@H](NC(=O)[C@H](CC(C)C)[C@H](O)C(=O)NO)C(C)(C)C [marimastat, reference compound]
effect of inhibitor on Z1 tissue labeling [4]: did reduce Z1 signal | effect of inhibitor on cleavage of PM19 [7]: fully inhibited cleavage of PM19 | effect of inhibitor on PZ19 labeling ([5]; Hi-Myc prostate sections): abrogated

Cl.NCCc1ccc(S(=O)(=O)F)cc1 [AEBSF, 4-(2-aminoethyl)benzenesulfonyl fluoride hydrochloride, reference compound]
effect of inhibitor on Z1 tissue labeling [4]: completely abrogated Z1 tissue labeling to the level of broad-spectrum inhibition | effect of inhibitor on PZ2 staining ([1]; four-hour incubation, mouse colon): abrogated | effect of inhibitor on cleavage of PM19 [7]: minimally affected cleavage

UeeeeeeeeXGGPQGIWGQGrrrrrrrrrX-k(Cy5) (Suc-[dE][dE][dE][dE][dE][dE][dE][dE][Ahx]GGPQGIWGQG[dR][dR][dR][dR][dR][dR][dR][dR][dR][Ahx][dK](Cy5)) [Z1]
Z1 staining in CD31-high cells of Eml4-Alk sections relative to CD31-high healthy and CD31-low cells ([4]; Eml4-Alk and healthy lung sections): significantly increased | Z1 intensity in vimentin-positive spindle-like cells relative to E-cadherin-positive or vimentin-positive rounded cells ([4]; Eml4-Alk tumors): increased Z1 intensity | Z1 staining of Eml4-Alk tumors ([4]; Eml4-Alk tumors vs free polyR binding control): strong, spindle-like staining | Z1 staining of healthy lungs ([4]; healthy lung sections): undetectable | AZP labeling of Eml4-Alk lung tissue [4]: protease-mediated, tumor-specific labeling | tissue labeling pattern of intact Z1 ([4]; intact Z1 1 μmol/L, 37° C. 4 hours, Eml4-Alk tumors): maintained its spindle-like spatial pattern | tissue labeling pattern of FAP-precleaved Z1 ([4]; precleaved with recombinant FAP, 0.1 μM, Eml4-Alk tumors): diffuse, uniform labeling that mirrored that of a free polyR

CCc1cc2c(cc1N1CCC(N3CCOCC3)CC1)C(C)(C)c1[nH]c3cc(C#N)ccc3c1C2=O [alectinib]
reporters exhibiting differential enrichment in the urine of vehicle- versus alectinib-treated mice [8]: 12 of 14
